Row | melting point | Structure (SMILES)
1 | 184 to 186 °C | O=C(O)COc1ccc(C(F)(F)F)cc1
2 | 132 to 134 °C | Cc1cc(C(F)(F)F)c(C#N)c(SCC(=O)O)n1
3 | 213 to 215 °C | O=C(O)c1cc(F)c(Br)c(S(=O)(=O)Cl)c1
4 | 90 to 92 °C | CCS(=O)(=O)c1nc2ccc(N)cc2s1
5 | 160 to 162 °C | CCc1sc(C(=O)NNC(=O)CCl)cc1C
6 | 209 to 211 °C | Cc1c(C(=O)O)nnn1-c1cccc2ncccc12
7 | 42 to 44 °C | O=C(O)C1CCN(S(=O)(=O)c2cc([N+](=O)[O-])ccc2Cl)CC1
8 | 125 to 130 °C | CNC(=O)c1ccc(S(=O)(=O)Cl)cc1
9 | 181 to 183 °C | Cc1n[nH]c(C)c1C(C)C(=O)O (stereo not given)
10 | 97 to 99 °C | O=C(O)c1cc(C2CC2)on1
11 | 162 to 164 °C | Cc1nc(CCC(=O)O)oc1-c1ccccc1
12 | 37 to 39 °C | COC(=O)c1csc(Br)c1
13 | 279 to 281 °C | O=C(O)c1[nH]c2ccc(F)cc2c1Cl
14 | 184 to 186 °C | Cc1ccc(CNC(N)=O)cc1
15 | 180 to 182 °C | NNC(=O)Cc1cc[nH]n1
16 | 50 to 52 °C | O=C(O)CCCOc1cccc(Br)c1
17 | 145 to 147 °C | CC(C)NCc1nc2ccccc2c(=O)[nH]1
18 | 202 to 204 °C | O=C(O)C=Cc1ccc(Oc2cccnc2)c(F)c1
19 | 179 to 181 °C | CC(C)NC(=O)c1ccc(C(=O)O)cc1
20 | 48 to 50 °C | CC(=O)c1cncc(F)c1
21 | 209 to 211 °C | O=C(O)c1cc(NS(=O)(=O)c2cccs2)ccc1O
22 | 146 to 148 °C | Cc1ccc(C(=O)N2CCCC(C(=O)O)C2)cc1 (stereo not given)
23 | 172 to 176 °C | CN(C)S(=O)(=O)c1cccc(C(=O)NCC(=O)O)c1
24 | 177 to 179 °C | CN(C)S(=O)(=O)c1ccc(C(=O)O)o1

Row | melting point | Structure (SMILES)
25 | 61 to 63 °C | CCCNc1cc(F)ccc1[N+](=O)[O-]
26 | 211 to 213 °C | O=C(O)CCCNC(=O)c1cccnc1
27 | 60 to 62 °C | O=C(O)C1(Cc2cccc(Cl)c2)CCCC1
28 | 130 to 132 °C | CCOC(=O)c1cc(S(C)(=O)=O)ccc1N
29 | 151 to 153 °C | O=C(O)COc1ccccc1C(F)(F)F
30 | 140 to 142 °C | COc1cccc(Cl)c1C(=O)O
31 | 94 to 96 °C | CCCN(CCC)C(=O)c1cccc(C(=O)O)c1
32 | 159 to 161 °C | CC1(C(=O)O)COC(=O)OC1
33 | 149 to 151 °C | COC(=O)N1CCc2cc(N)ccc21
34 | 57 to 59 °C | CCS(=O)(=O)CC(=O)O
35 | 77 to 79 °C | CC(=O)N1CCC(O)C1 (stereo not given)
36 | 102 to 104 °C | O=C(O)COc1cc(C(F)(F)F)cc(C(F)(F)F)c1
37 | 197 to 199 °C | O=C(O)CCc1ccnc2ccccc12
38 | 184 to 186 °C | O=C(O)CNCc1c(F)cccc1Cl
39 | 106 to 108 °C | O=C(O)c1ccccc1S(=O)(=O)N1CCCCC1
40 | 118 to 120 °C | O=C(CCl)c1cnc(N2CCCCC2)s1
41 | 49 to 51 °C | CCOC(=O)c1ccc(S(=O)(=O)Cl)cc1
42 | 229 to 231 °C | CCc1[nH]ncc1C(=O)O
43 | 140 to 142 °C | Cc1nn(Cc2ccc(F)cc2)c2[nH]nc(N)c12
44 | 168 to 170 °C | Cc1c(F)cc(C(=O)O)cc1[N+](=O)[O-]
45 | 239 to 241 °C | NC(=O)c1cn(CC(=O)O)c2ccccc12
46 | 125 to 135 °C | COC(=O)C(=O)CC(=O)c1ccc(F)cc1
47 | 118 to 120 °C | N#Cc1cccc(NC(=O)CSc2ccccc2C(=O)O)c1
48 | 128 to 130 °C | CCS(=O)c1ccccc1C(=O)O (stereo not given)

Further lines, the compound ahead of its results:

Row | Structure (SMILES) | melting point
49 | COc1ccc(NS(=O)(=O)c2cc(C(=O)O)ccc2C)cc1 | 71 to 73 °C
50 | CC(=O)N1CCCc2cc(S(=O)(=O)Cl)ccc21 | 127 to 129 °C
51 | C=CCn1c(=S)sc2c(=O)[nH]cnc21 | 216 to 218 °C
52 | COc1ccc(C(CNC(=O)OCC(F)(F)F)N2CCCC2)cc1 (stereo not given) | 55 to 57 °C
53 | CN(C)S(=O)(=O)c1ccc2c(c1)CCCN2 | 160 to 162 °C
54 | C=CC(=O)Nc1ccc(OC)c(OC)c1 | 102 to 104 °C
55 | NNc1nc(-c2ccc(Cl)cc2)no1 | 179 to 181 °C
56 | NS(=O)(=O)c1ccc(CCNS(=O)(=O)c2cccc(C(=O)O)c2)cc1 | 226 to 228 °C
57 | O=C(O)C1(c2cccc(Br)c2)CCCCC1 | 164 to 166 °C
58 | O=S1(=O)CCCN1c1ccc(Br)cc1 | 108 to 110 °C
59 | ClCc1ncc(-c2ccc(Br)cc2)o1 | 80 to 82 °C
60 | Nc1cccc(Cl)c1N1CCOCC1 | 154 to 156 °C
61 | CC1CC(C)CN(S(=O)(=O)c2ccc(NN)nc2)C1 (stereo not given) | 217 to 219 °C
62 | Nc1onc(-c2ccccc2)c1-c1ccccc1 | 144 to 146 °C
63 | O=C1Cc2ccccc2C(=O)N1 | 190 to 192 °C
64 | CC(C)(C)OC(=O)NCCC(=O)NC(N)=O | 162 to 164 °C
65 | O=Cc1cc(Br)ccc1OCc1ccccn1 | 138 to 140 °C
66 | CS(=O)(=O)c1cccc(C(N)c2ccccc2)c1 (stereo not given) | 48 to 50 °C
67 | CC1=NN(c2nc(C)cc(C)n2)C(=O)C1 | 109 to 111 °C
68 | O=c1[nH]cnc2nc(N3CCOCC3)sc12 | 397 to 399 °C
69 | O=C(CSc1nnc(NCc2ccccc2)s1)NCC1CCCCC1 | 134 to 136 °C
70 | CC1CCc2c(sc(N)c2C(N)=O)C1 (stereo not given) | 188 to 190 °C
71 | CN(C)c1ccnc(Cl)n1 | 79 to 81 °C
72 | Cn1nc(-c2ccccn2)c(-c2ccc(F)cc2)c1N | 164 to 166 °C
73 | Cc1c(N)cccc1N1C(=O)CCC1=O | 182 to 184 °C
74 | NS(=O)(=O)CC(F)(F)F | 97 to 99 °C

Row | Structure (SMILES) | melting point
75 | O=C(O)CSc1nnc(-c2ccccc2)n1-c1ccc(Cl)cc1 | 224 to 226 °C
76 | CNc1ccc(OCCOC)cc1 | 59 to 61 °C
77 | COc1ccc(N)cc1S(=O)(=O)N1CCOCC1 | 131 to 133 °C
78 | COc1cc(C=C2CCCc3c2nc2ccccc2c3C(=O)O)cc(OC)c1OC | 249 to 251 °C
79 | Clc1ncc(Br)c2ccccc12 | 98 to 100 °C
80 | Nc1cc(C(F)(F)F)cc2c1OCC(=O)N2 | 199 to 201 °C
81 | O=C(NC1CCOCC1)c1ccc(Cl)nn1 | 152 to 154 °C
82 | CC(C)C(C)(CC(=O)N1CCOCC1)C(=O)O (stereo not given) | 134 to 136 °C
83 | O=C(O)C(OC1CCOCC1)c1ccccc1 (stereo not given) | 87 to 89 °C
84 | Cc1ccoc1-c1nnc(N)s1 | 153 to 155 °C
85 | O=Cc1cnc2cnccn12 | 178 to 180 °C
86 | COc1ccccc1-n1cc(S(N)(=O)=O)cn1 | 143 to 145 °C
87 | Brc1cn2ccnc2c(Br)n1 | 152 to 154 °C
88 | Cc1nccn1-c1cc(C#N)ccn1 | 194 to 196 °C
89 | O=C1NC(=O)C(=Cc2ccccc2C(F)(F)F)S1 | 170 to 172 °C
90 | Nc1nnc(C(F)F)s1 | 174 to 176 °C
91 | O=c1c2ccccc2oc2ccc([N+](=O)[O-])cc12 | 203 to 205 °C
92 | Cn1c(S)nnc1Cc1cccs1 | 157 to 161 °C
93 | Sc1nc2cc(Cl)cnc2[nH]1 | 352 to 354 °C
94 | CC1Cc2ccccc2N1S(N)(=O)=O (stereo not given) | 67 to 69 °C
95 | Cn1nc(-c2ccccc2)nc1CC#N | 116 to 118 °C
96 | Cc1cc(C=O)c(C)n1CC(C)C | 43 to 47 °C
97 | NC(=O)c1c(N)sc2c1CCN(Cc1ccccc1)C2 | 76 to 78 °C
98 | NNc1c(F)cc(F)cc1Cl | 87 to 89 °C
99 | NC1CCN(CC(=O)Nc2ccccc2)CC1 | 75 to 77 °C
100 | Nc1ccc(Cl)c(S(=O)(=O)N2CCCC2)c1 | 116 to 118 °C
